Experimental data published in ChEMBL document CHEMBL2311530, “The development of potential new fluorine-18 labelled radiotracers for imaging the GABA(A) receptor” (Bioorg Med Chem Lett, 2013).

Key:
[1] = Displacement of […]FMZ from Wistar rat cerebellum GABAA receptor by competitive radioligand assay; format: tissue-based
[2] = Lipophilicity, log D of the compound in n-octanol at pH 7.4 by shake flask method; format: physicochemical

Structure (SMILES)	Ki [1] [nM]	logD [2]
CN1Cc2c(C(=O)OC(C)(C)C)ncn2-c2nccc(F)c2C1=O	1.3	
CN1Cc2c(C(=O)OC(C)(C)C)ncn2-c2ccnc(F)c2C1=O	3.9	
CCOC(=O)c1ncn2c1CN(C)C(=O)c1nc(F)ccc1-2	14	
CCOC(=O)c1ncn2c1[C@@H]1CCCN1C(=O)c1cc(F)ccc1-2	2.3	1.85
O=C(NCCCF)c1ncn2c1[C@@H]1CCCN1C(=O)c1c(Br)cccc1-2	> 10000	
O=C(OCCCF)c1ncn2c1[C@@H]1CCCN1C(=O)c1c(Br)cccc1-2	3.2	
O=C(NCCF)c1ncn2c1[C@@H]1CCCN1C(=O)c1c(Br)cccc1-2	> 10000	
O=C(OCCF)c1ncn2c1[C@@H]1CCCN1C(=O)c1c(Br)cccc1-2	9.4	
CN1Cc2c(C(=O)OC(C)(C)C)ncn2-c2cccc(OCCF)c2C1=O	1.1	
CN1Cc2c(C(=O)OC(C)(C)C)ncn2-c2ccc(OCCF)cc2C1=O	0.52	1.17
CCOC(=O)c1ncn2c1CN(C)C(=O)c1cc(OCCF)ccc1-2	2.3	1.62
CC(C)OC(=O)c1ncn2c1CN(C)C(=O)c1c(F)cccc1-2	0.42	
CN1Cc2c(C(=O)OC(C)(C)C)ncn2-c2cccc(F)c2C1=O	0.76	0.69
CC(C)(C)OC(=O)c1ncn2c1CN(CCF)C(=O)c1cc(F)ccc1-2	8.9	
CCOC(=O)c1ncn2c1CN(CCF)C(=O)c1cc(F)ccc1-2	13.5	1.54
CN1Cc2c(C(=O)OC(C)(C)C)ncn2-c2ccc(F)cc2C1=O	1.9	
CCOC(=O)c1ncn2c1CN(CC)C(=O)c1cc(F)ccc1-2	10.7	1.65
CCOC(=O)c1ncn2c1CN(Cc1ccccc1)C(=O)c1cc(F)ccc1-2	2.9	1.44
CN1Cc2c(C(=O)OCCCF)ncn2-c2ccc(F)cc2C1=O	> 10000	0.68
CN1Cc2c(C(=O)NCCF)ncn2-c2ccc(F)cc2C1=O	> 10000	
CN1Cc2c(C(=O)NCCCF)ncn2-c2ccc(F)cc2C1=O	> 10000	
CN1Cc2c(C(=O)OCCF)ncn2-c2ccc(F)cc2C1=O	4	1.12
CCOC(=O)c1ncn2c1CN(C)C(=O)c1c(F)cccc1-2	5.5	1.25
CC(C)(C)OC(=O)c1ncn2c1[C@@H]1CCCN1C(=O)c1c(Br)cccc1-2 [BRETAZENIL]	0.3	
CCOC(=O)c1ncn2c1CN(C)C(=O)c1cc(F)ccc1-2 [FLUMAZENIL]	1.3	1.58
